Converted amounts (≈) assume the structure as drawn. Where only a bound is given, the exact number is not on record here.

The test deals with E. coli strains. The test can be described thus: CLSI overnight reference method, broth microdilution MIC. The following applies: for MIC (CLSI Ref): unit assumed. The format is cell-based. (In broth dilution the organism is exposed to a series of concentrations in liquid medium.)
[1] abbreviates: E. coli strain Clinical Sample 1.
Setting [2] is: E. coli strain Clinical Sample 2.
Setting [3] is: E. coli strain Clinical Sample 4.
Where [4] appears, read: E. coli strain Clinical Sample 5.
Where [5] appears, read: E. coli strain Clinical Sample 6.
Setting [6] is: E. coli strain Clinical Sample 7.
Setting [7] is: E. coli strain Clinical Sample 8.
Setting [8] is: E. coli strain Clinical Sample 9.
[9] abbreviates: E. coli strain Clinical Sample 10.
Setting [10] is: E. coli strain Clinical Sample 11.
The mark [11] stands for this setting: E. coli strain Clinical Sample 12.
Setting [12] is: E. coli strain Clinical Sample 13.

For the molecule `CC1(C)S[C@@H]2[C@H](NC(=O)[C@H](N)c3ccccc3)C(=O)N2[C@H]1C(=O)O` [AMP, Ampicillin], the MIC (CLSI Ref) is, setting by setting: (E. coli strain BEI 4.097) 4 µg/mL (≈ 11.4 µM); (E. coli strain CDC Carba36) more than 32 µg/mL; under setting [1], 4 µg/mL (≈ 11.4 µM); under setting [2], more than 32 µg/mL; under setting [3], more than 32 µg/mL; under setting [4], more than 32 µg/mL. Moreover, the MIC (CLSI Ref) under setting [5] stood at 4 µg/mL (≈ 11.4 µM); the MIC (CLSI Ref) under setting [6] is more than 32 µg/mL; the MIC (CLSI Ref) under setting [7] was more than 32 µg/mL; the MIC (CLSI Ref) under setting [8] was more than 32 µg/mL; the MIC (CLSI Ref) under setting [9] is more than 32 µg/mL; the MIC (CLSI Ref) under setting [10] is 4 µg/mL (≈ 11.4 µM). For the same molecule, the MIC (CLSI Ref) is 4 µg/mL (≈ 11.4 µM) under setting [11] and more than 32 µg/mL under setting [12].
The molecule `C[C@H]1[C@H](NC(=O)/C(=N\OC(C)(C)C(=O)O)c2csc(N)n2)C(=O)N1S(=O)(=O)O` [ATM, Aztreonam] had an MIC (CLSI Ref) (E. coli strain BEI 4.097) of less than 0.25 µg/mL; an MIC (CLSI Ref) (E. coli strain CDC Carba36) of 8 µg/mL (≈ 18.4 µM); an MIC (CLSI Ref) under setting [1] of less than 0.25 µg/mL; an MIC (CLSI Ref) under setting [2] of 0.5 µg/mL (≈ 1.15 µM); an MIC (CLSI Ref) under setting [3] of less than 0.25 µg/mL; an MIC (CLSI Ref) under setting [4] of less than 0.25 µg/mL. The MIC (CLSI Ref) was less than 0.25 µg/mL under setting [5]; less than 0.25 µg/mL under setting [6]; 64 µg/mL (≈ 147 µM) under setting [7]; 32 µg/mL (≈ 73.5 µM) under setting [8]; less than 0.25 µg/mL under setting [9]; less than 0.25 µg/mL under setting [10]. Besides, the MIC (CLSI Ref) is less than 0.25 µg/mL under setting [11] and less than 0.25 µg/mL under setting [12].
For the molecule `CC(C)(O/N=C(\C(=O)N[C@@H]1C(=O)N2C(C(=O)[O-])=C(C[n+]3ccccc3)CS[C@H]12)c1csc(N)n1)C(=O)O` [CAZ, Ceftazidime], the MIC (CLSI Ref) reads like this: (E. coli strain BEI 4.097) 0.25 µg/mL (≈ 0.457 µM); (E. coli strain CDC Carba36) 4 µg/mL (≈ 7.32 µM); under setting [1], 0.25 µg/mL (≈ 0.457 µM); under setting [2], 2 µg/mL (≈ 3.66 µM); under setting [3], 0.25 µg/mL (≈ 0.457 µM); under setting [4], 0.25 µg/mL (≈ 0.457 µM). Besides, the MIC (CLSI Ref) under setting [5] was found to be 0.12 µg/mL (≈ 0.22 µM); the MIC (CLSI Ref) under setting [6] was found to be 0.25 µg/mL (≈ 0.457 µM); the MIC (CLSI Ref) under setting [7] was more than 32 µg/mL; the MIC (CLSI Ref) under setting [8] is more than 32 µg/mL; the MIC (CLSI Ref) under setting [9] turned out to be 0.12 µg/mL (≈ 0.22 µM); the MIC (CLSI Ref) under setting [10] was determined as 0.25 µg/mL (≈ 0.457 µM). For the same molecule, the MIC (CLSI Ref) came to 0.12 µg/mL (≈ 0.22 µM) under setting [11] and 0.12 µg/mL (≈ 0.22 µM) under setting [12].
With `CO/N=C(\C(=O)N[C@@H]1C(=O)N2C(C(=O)O)=C(CSc3nc(=O)c(=O)[nH]n3C)CS[C@H]12)c1csc(N)n1` [CRO, Ceftriaxone], the MIC (CLSI Ref) was less than 0.12 µg/mL (E. coli strain BEI 4.097); 1 µg/mL (≈ 1.8 µM) (E. coli strain CDC Carba36); less than 0.12 µg/mL under setting [1]; 2 µg/mL (≈ 3.61 µM) under setting [2]; less than 0.12 µg/mL under setting [3]; less than 0.12 µg/mL under setting [4]. Also, the MIC (CLSI Ref) under setting [5] was less than 0.12 µg/mL; the MIC (CLSI Ref) under setting [6] is less than 0.12 µg/mL; the MIC (CLSI Ref) under setting [7] was 64 µg/mL (≈ 115 µM); the MIC (CLSI Ref) under setting [8] is more than 64 µg/mL; the MIC (CLSI Ref) under setting [9] is less than 0.12 µg/mL; the MIC (CLSI Ref) under setting [10] is less than 0.12 µg/mL. For the same molecule, the MIC (CLSI Ref) is less than 0.12 µg/mL under setting [11] and less than 0.12 µg/mL under setting [12]. Also, the “Interpretation letter” value under setting [2] is recorded as “I”.
`C[C@@H](O)[C@H]1C(=O)N2C(C(=O)O)=C(S[C@@H]3CN[C@H](C(=O)Nc4cccc(C(=O)O)c4)C3)[C@H](C)[C@H]12` [ERT, Ertapenem]: the MIC (CLSI Ref) runs as follows: (E. coli strain BEI 4.097) 0.008 µg/mL (≈ 0.0168 µM); (E. coli strain CDC Carba36) 0.12 µg/mL (≈ 0.252 µM); under setting [1], 0.008 µg/mL (≈ 0.0168 µM); under setting [2], 0.015 µg/mL (≈ 0.0315 µM); under setting [3], 0.008 µg/mL (≈ 0.0168 µM); under setting [4], 0.008 µg/mL (≈ 0.0168 µM). Moreover, the MIC (CLSI Ref) is, setting by setting: under setting [5], 0.008 µg/mL (≈ 0.0168 µM); under setting [6], 0.008 µg/mL (≈ 0.0168 µM); under setting [7], 0.25 µg/mL (≈ 0.526 µM); under setting [8], 0.12 µg/mL (≈ 0.252 µM); under setting [9], 0.008 µg/mL (≈ 0.0168 µM); under setting [10], 0.008 µg/mL (≈ 0.0168 µM). For the same molecule, the MIC (CLSI Ref) by setting is: under setting [11], 0.008 µg/mL (≈ 0.0168 µM); under setting [12], 0.016 µg/mL (≈ 0.0336 µM).
For `C[C@H]1COc2c(N3CCN(C)CC3)c(F)cc3c(=O)c(C(=O)O)cn1c23` [LVX, Levofloxacin], the MIC (CLSI Ref) reads like this: (E. coli strain BEI 4.097) less than 0.06 µg/mL; (E. coli strain CDC Carba36) more than 8 µg/mL; under setting [1], less than 0.06 µg/mL; under setting [2], less than 0.06 µg/mL; under setting [3], more than 8 µg/mL; under setting [4], more than 8 µg/mL. In addition, the MIC (CLSI Ref) runs as follows: under setting [5], less than 0.06 µg/mL; under setting [6], less than 0.06 µg/mL; under setting [7], less than 0.06 µg/mL; under setting [8], more than 8 µg/mL; under setting [9], 8 µg/mL (≈ 22.1 µM); under setting [10], less than 0.06 µg/mL. The MIC (CLSI Ref) under setting [11] turned out to be 0.5 µg/mL (≈ 1.38 µM) and the MIC (CLSI Ref) under setting [12] was less than 0.06 µg/mL.
In the case of `C[C@@H](O)[C@H]1C(=O)N2C(C(=O)O)=C(S[C@@H]3CN[C@H](C(=O)N(C)C)C3)[C@H](C)[C@H]12` [MEM, Meropenem], the MIC (CLSI Ref) by setting is: (E. coli strain BEI 4.097) less than 0.06 µg/mL; (E. coli strain CDC Carba36) less than 0.06 µg/mL; under setting [1], less than 0.06 µg/mL; under setting [2], less than 0.06 µg/mL; under setting [3], less than 0.06 µg/mL; under setting [4], less than 0.06 µg/mL. Besides, the MIC (CLSI Ref) was less than 0.06 µg/mL under setting [5]; less than 0.06 µg/mL under setting [6]; less than 0.06 µg/mL under setting [7]; less than 0.06 µg/mL under setting [8]; less than 0.06 µg/mL under setting [9]; less than 0.06 µg/mL under setting [10]. The MIC (CLSI Ref) is, setting by setting: under setting [11], less than 0.06 µg/mL; under setting [12], less than 0.06 µg/mL.

For the origin of these results see US12203124B2, “Methods for improved rapid antimicrobial susceptibility testing” (priority 2016, dated 2025).
